inhibition, melting point and pest or weed control data for twelve compounds are collected here from patent publication US10314308B2, “Microbiocidal benzoxaboroles” (SYNGENTA PARTICIPATIONS AG, priority 2015, dated 2019).

One series relates to Pythium Ultimum. In words: Pythium ultimum / liquid culture (seedling damping off). The series is classed as cell-based. The note with it: Globisporangium ultimum, potato dextrose broth, 24° C., 2-3 days after application, read-out: disease control (inhibition of growth, photometrically).
For series [1], the system named is Monographella Nivalis(Microdochium Nivale). In words: Monographella nivalis (Microdochium nivale) / liquid culture (foot rot cereals). Particulars: PDB potato dextrose broth, 24° C., 4-5 days after application, read-out: disease control (inhibition of growth, photometrically). The series is classed as cell-based. The method, then: 14 Monographella Nivalis(Microdochium Nivale)/Liquid Culture (Foot Rot Cereals) Conidia of the fungus from cryogenic storage were directly mixed into nutrient broth (PDB potato dextrose broth). After placing a DMSO solution of test compound into a 96-well microtiter plate, the nutrient broth containing the fungal spores was added. The test plates were incubated at 24° C. and the inhibition of growth was determined photometrically 4-5 days after application.

The test system of series [2] is Glomerella Lagenarium(Colletotrichum Ladenarium). In words: Glomerella lagenarium (Colletotrichum lagenarium) / liquid culture (anthracnose). Particulars: PDB potato dextrose broth, 24° C., 3-4 days after application, read-out: disease control (inhibition of growth, photometrically). The series is classed as cell-based. Here is the method: 10 Glomerella Lagenarium(Colletotrichum Ladenarium)/Liquid Culture (Anthracnose) Conidia of the fungus from cryogenic storage were directly mixed into nutrient broth (PDB potato dextrose broth). After placing a DMSO solution of test compound into a 96-well microtiter plate, the nutrient broth containing the fungal spores was added. The test plates were incubated at 24° C. and the inhibition of growth was measured photometrically 3-4 days after application.

The subject of series [3] is Botryotinia Fuckeliana(Botrytis Cinerea). Nature of the series: Botryotinia fuckeliana (Botrytis cinerea) / liquid culture (gray mould). The series is classed as cell-based. The note with it: Vogels broth, 24° C., 3-4 days after application, read-out: disease control (inhibition of growth, photometrically). The method, then:
9 Botryotinia Fuckeliana(Botrytis Cinerea)/Liquid Culture (Gray Mould) Conidia of the fungus from cryogenic storage were directly mixed into nutrient broth (Vogels broth). After placing a DMSO solution of test compound into a 96-well microtiter plate, the nutrient broth containing the fungal spores was added. The test plates were incubated at 24° C. and the inhibition of growth was determined photometrically 3-4 days after application.

The test system of series [4] is Thanatephorus Cucumeris(Rhizoctonia Solani). In words: Thanatephorus cucumeris (Rhizoctonia solani) / liquid culture (foot rot, damping-off). The series is classed as cell-based. The note with it: PDB potato dextrose broth, 24° C., 3-4 days after application, read-out: disease control (inhibition of growth, photometrically). The method, then:
16 Thanatephorus Cucumeris(Rhizoctonia Solani)/Liquid Culture (Foot Rot, Damping-Off) Mycelia fragments of a newly grown liquid culture of the fungus were directly mixed into nutrient broth (PDB potato dextrose broth). After placing a DMSO solution of the test compounds into a 96-well microtiter plate at an application rate of 200 ppm, the nutrient broth containing the fungal material was added. The test plates were incubated at 24° C. and the inhibition of growth was determined photometrically 3-4 days after application.

The next series relates to Fusarium Culmorum. In words: microbe, parasite or virus in culture. In kind it is cell-based. Particulars: read-out: disease control (inhibition of growth, photometrically).
A further series deals with Sclerotinia Sclerotiorum. Nature of the series: Sclerotinia sclerotiorum / liquid culture (cottony rot). The series is classed as cell-based. Particulars: PDB potato dextrose broth, 24° C., 3-4 days after application, read-out: disease control (inhibition of growth, visually). The method, then: 17 Sclerotinia Sclerotiorum/Liquid Culture (Cottony Rot) Mycelia fragments of a newly grown liquid culture of the fungus were directly mixed into nutrient broth (PDB potato dextrose broth). After placing a (DMSO) solution of the test compounds into a microtiter plate (96-well format) the nutrient broth containing the fungal material was added. The test plates were incubated at 24° C. and the inhibition of growth was determined visually 3-4 days after application.

In the next series the test system is Plasmopara Viticola. In words: whole plant or invertebrate. The series is classed as in vivo. Particulars: foliar, read-out: disease control.
In series [5] the test system is Mycosphaerella Graminicola(Septoria Tritici). Nature of the series: Mycosphaerella graminicola (Septoria tritici) / liquid culture (Septoria blotch). In kind it is cell-based. The note with it: Zymoseptoria tritici, PDB potato dextrose broth, 24° C., 4-5 days after application, read-out: disease control (inhibition of growth, photometrically). Here is the method: 12 Mycosphaerella Graminicola(Septoria Tritici)/Liquid Culture (Septoria Blotch) Conidia of the fungus from cryogenic storage were directly mixed into nutrient broth (PDB potato dextrose broth). After placing a DMSO solution of test compound into a 96-well microtiter plate, the nutrient broth containing the fungal spores was added. The test plates were incubated at 24° C. and the inhibition of growth was determined photometrically 4-5 days after application.

Series [6] concerns Mycosphaerella Arachidis(Cercospora Arachidicola). Nature of the series: Mycosphaerella arachidis (Cercospora arachidicola) / liquid culture (early leaf spot). The series is classed as cell-based. The note with it: PDB potato dextrose broth, 24° C., 4-5 days after application, read-out: disease control (inhibition of growth, photometrically). Here is the method:
11 Mycosphaerella Arachidis(Cercospora Arachidicola)/Liquid Culture (Early Leaf Spot) Conidia of the fungus from cryogenic storage were directly mixed into nutrient broth (PDB potato dextrose broth). After placing a DMSO solution of test compound into a 96-well microtiter plate, the nutrient broth containing the fungal spores was added. The test plates were incubated at 24° C. and the inhibition of growth was determined photometrically 4-5 days after application.

Another series relates to Gaeumannomyces Graminis. Nature of the series: Gaeumannomyces graminis / liquid culture (take-all of cereals). Particulars: PDB potato dextrose broth, 24° C., 4-5 days after application, read-out: disease control (inhibition of growth, photometrically). The series is classed as cell-based. Here is the method:
13 Gaeumannomyces Graminis/Liquid Culture (Take-all of Cereals) Mycelial fragments of the fungus from cryogenic storage were directly mixed into nutrient broth (PDB potato dextrose broth). After placing a DMSO solution of test compound into a 96-well microtiter plate, the nutrient broth containing the fungal spores is added. The test plates were incubated at 24° C. and the inhibition of growth was determined photometrically 4-5 days after application.

The test system of series [7] is Phaeosphaeria Nodorum (Septoria Nodorum). In words: Phaeosphaeria nodorum (Septoria nodorum) / wheat / leaf disc preventative (glume blotch). In kind it is in vivo. The note with it: Parastagonospora nodorum, foliar, wheat leaf segments cv Kanzler, inoculated 2 days after application, assessed 5-7 days after application, read-out: disease control. Here is the method: 5 Phaeosphaeria Nodorum (Septoria Nodorum)/Wheat/Leaf Disc Preventative (Glume Blotch) Wheat leaf segments cv Kanzler were placed on agar in a 24-well plate and sprayed with formulated test compound diluted in water. The leaf disks were inoculated with a spore suspension of the fungus 2 days after application. The inoculated test leaf disks were incubated at 20° C. and 75% relative humidity under a light regime of 12/12 h (light/dark) in a climate cabinet and the activity of a compound was assessed as percent disease control compared to untreated when an appropriate level of disease damage appears in untreated check leaf disks (5-7 days after application).

Regarding `ON=Cc1ccc(-c2cc3c(cc2Cl)COB3O)o1` (single isomer, unassigned) [Compound 22, 5-(5-chloro-1-hydroxy-3H-2,1-benzoxaborol-6-yl)furan-2-carbaldehyde oxime], the melting point (commonly the temperature of the solid-liquid transition) is 188 to 193 °C. The inhibition – broadly, the relative decrease from the control value, in per cent – at 20 ppm in the series with Pythium Ultimum is ≥ 80%. Moreover, the inhibition at 20 ppm in series [1] was ≥ 80%. Moreover, in [2], the inhibition at 20 ppm was ≥ 80%.

Take `OB1OCc2cc(F)c(-c3ccco3)cc21` [Compound 5]: the melting point lay within 155 to 164 °C. In the series on Pythium Ultimum, the inhibition at 20 ppm is ≥ 80%. Also, in series [3], the inhibition at 20 ppm was ≥ 80%. Also, in series [4], the inhibition at 20 ppm was ≥ 80%. The inhibition at 20 ppm with Fusarium Culmorum was ≥ 80%. In addition, the inhibition at 20 ppm with Sclerotinia Sclerotiorum was ≥ 80%. Besides, the pest or weed control at 200 ppm in the series with Plasmopara Viticola was ≥ 80%. Also, the inhibition at 20 ppm in series [1] is ≥ 80%. Besides, in series [5], the inhibition at 20 ppm was ≥ 80%. In addition, in series [6], the inhibition at 20 ppm is ≥ 80%. The inhibition at 20 ppm in series [2] is ≥ 80%. Further, in the series with Gaeumannomyces Graminis, the inhibition at 20 ppm was ≥ 80%.

For `OB1OCc2cc(Cl)c(-c3ccccn3)cc21` [Compound 8], the pest or weed control at 200 ppm (in series [7]; in the series with Plasmopara Viticola) was ≥ 80% in each case. Besides, the inhibition at 20 ppm (with Pythium Ultimum; in [3]; in the series on Fusarium Culmorum; with Sclerotinia Sclerotiorum; in series [5]; in series [6]) was ≥ 80% throughout. For the same compound, in series [2], the inhibition at 20 ppm was ≥ 80%.

`O=Cc1ccc(-c2cc3c(cc2Cl)COB3O)o1` [Compound 21, 5-(5-chloro-1-hydroxy-3H-2,1-benzoxaborol-6-yl)furan-2-carbaldehyde] came in with a melting point of 145 to 165 °C. In addition, the inhibition at 20 ppm with Pythium Ultimum was ≥ 80%. The inhibition at 20 ppm in the series on Sclerotinia Sclerotiorum is ≥ 80%. In the series on Plasmopara Viticola, the pest or weed control at 200 ppm is ≥ 80%. Besides, the inhibition at 20 ppm in series [1] is ≥ 80%. In series [5], the inhibition at 20 ppm was ≥ 80%. In addition, in [2], the inhibition at 20 ppm is ≥ 80%. Also, the inhibition at 20 ppm in the series with Gaeumannomyces Graminis is ≥ 80%.

The compound `Cn1nnc(-c2ccc3c(c2)B(O)OC3)n1` [Compound 31, 5-(1-hydroxy-3H-2,1-benzoxaborol-6-yl)-2-methyl-tetrazole] returned a melting point of 209 to 210 °C. Moreover, in the series on Pythium Ultimum, the inhibition at 20 ppm is ≥ 80%. Moreover, in [1], the inhibition at 20 ppm was ≥ 80%. Moreover, the inhibition at 20 ppm in [6] is ≥ 80%. Besides, the inhibition at 20 ppm in series [2] was ≥ 80%.

In the case of `Cc1nc(-c2cc3c(cc2F)COB3O)oc1C` [Compound 32, 2-(5-fluoro-1-hydroxy-3H-2,1-benzoxaborol-6-yl)-4,5-dimethyl-oxazole], the melting point fell in the range of 164 to 166 °C. In addition, the inhibition at 20 ppm with Pythium Ultimum is ≥ 80%. In addition, in series [1], the inhibition at 20 ppm is ≥ 80%.

For the compound `OB1OCc2cc(Cl)c(-c3cocc3Br)cc21` [Compound 44], the inhibition at 20 ppm (with Pythium Ultimum; in series [3]; in series [4]; in the series on Fusarium Culmorum; in the series with Sclerotinia Sclerotiorum; in [1]) was ≥ 80% each time. For the same compound, the inhibition at 20 ppm (in [5]; in series [6]; in series [2]; with Gaeumannomyces Graminis) was ≥ 80% in each case. The pest or weed control at 200 ppm in the series with Plasmopara Viticola is ≥ 80%.

`OB1OCc2cc(Cl)c(-c3sccc3Br)cc21` [Compound 45]: the inhibition at 20 ppm (in the series with Pythium Ultimum; in series [3]; in [4]; in the series with Fusarium Culmorum; in the series on Sclerotinia Sclerotiorum; in series [1]) was ≥ 80% each time. In addition, the inhibition at 20 ppm (in [5]; in series [6]; in series [2]; in the series on Gaeumannomyces Graminis) was ≥ 80% throughout. In the series with Plasmopara Viticola, the pest or weed control at 200 ppm is ≥ 80%.

For `OB1OCc2cc(F)c(-c3cncc(Cl)n3)cc21` [Compound 57], the pest or weed control at 200 ppm (in series [7]; in the series with Plasmopara Viticola) was ≥ 80% throughout. Also, the inhibition at 20 ppm (in the series with Pythium Ultimum; in series [3]; with Fusarium Culmorum; with Sclerotinia Sclerotiorum; in series [1]; in series [5]) was ≥ 80% in each case. Further, the inhibition at 20 ppm (in series [6]; in the series on Gaeumannomyces Graminis) was ≥ 80% throughout.

Consider `OB1OCc2cc(Cl)c(-c3cncc(Cl)n3)cc21` [Compound 68], for which the pest or weed control at 200 ppm (in [7]; in the series on Plasmopara Viticola) was ≥ 80% each time. The inhibition at 20 ppm (in the series with Pythium Ultimum; in [3]; with Sclerotinia Sclerotiorum; in series [1]; in series [5]; in series [6]) was ≥ 80% in each case. For the same compound, the inhibition at 20 ppm in the series with Gaeumannomyces Graminis was ≥ 80%.

For `OB1OCc2cc(F)c(-c3ccoc3)cc21` [Compound 75], the inhibition at 20 ppm (in the series on Pythium Ultimum; in series [3]; in [4]; with Fusarium Culmorum; in the series on Sclerotinia Sclerotiorum; in series [1]) was ≥ 80% each time. The inhibition at 20 ppm (in series [5]; in series [6]; in series [2]; with Gaeumannomyces Graminis) was ≥ 80% each time. For the same compound, in the series with Plasmopara Viticola, the pest or weed control at 200 ppm was ≥ 80%.

`COc1ncccc1-c1cc2c(cc1F)COB2O` [Compound 81]: the pest or weed control at 200 ppm (in [7]; in the series with Plasmopara Viticola) was ≥ 80% each time. Further, the inhibition at 20 ppm (in the series with Pythium Ultimum; in the series with Sclerotinia Sclerotiorum; in series [1]; in [5]; in series [6]; in [2]) was ≥ 80% each time. In addition, the inhibition at 20 ppm with Gaeumannomyces Graminis is ≥ 80%.
